According to patent publication US10544178B2, “Metal complex compound and preparing method and usage thereof” (National Changhua University of Education, priority 2018, dated 2020):

Experiments:
[1] = tested on: DU145 breast cancer cell
Procedure: (§1) Pharmacology Research: cytotoxicity research upon PC-3 prostatic cancer and DU145 breast cancer
(§2) Human cell HRMPC performing cell activity of PC-3 prostatic cancer and DU145 breast cancer is placed into PRMI1640 culture medium to be cultured under a temperature of 37° C. in a 5% CO2/95% air. The PRMI1640 culture medium contains 10% FBS and penicillin (100 U/ml)/streptomycin (100 U/ml).
(§3) Subsequently, the cell survivability is quantified through colorimetry (Sulforhodamine B Assay).

[2] = tested on: PC-3 prostatic cancer cell
Procedure: as §1, §2, §3

Row | Substance | IC50 [1] | IC50 [2]
1 | para-methylisopropylphenylchloride-1-(para-diethylaminophenyl)-3-[(1-methyl-3-indazolyl)imino]-1-oxypropylruthenium [Embodiment 6] | > 30 µM | > 30 µM
2 | para-methylisopropylphenylchloride-1-carbonyl-3-[(2,6-diisopropyl)n-phenyl]-1-phenyl-2-butyleneruthenium [Embodiment 3] | 5.37 ± 0.06 µM | 2.39 ± 0.13 µM
3 | para-methylisopropylphenylchloride-1-carbonyl-3-[(2-methoxyl) n-phenyl]-1-phenyl-2-butyleneruthenium [Embodiment 2] | 14.3 ± 0.28 µM | 5.68 ± 0.12 µM
4 | para-methylisopropylphenylchloride-1-carbonyl-3-n-phenyl-1-phenyl-2-butyleneruthenium [Embodiment 1] | 9.31 ± 1.48 µM | 5.66 ± 0.2 µM
5 | para-methylisopropylphenylchloride-2-(2-indazolyl)1-phenyl-1-oxyethylruthenium [Embodiment 7] | > 30 µM | 
6 | para-methylisopropylphenylchloride-2-[1-(2-naphthyl)azomethine]phenoxyruthenium [Embodiment 5] | 14.2 ± 0.35 µM | 4.58 ± 0.32 µM
7 | para-methylisopropylphenylchloride-2-[1-para-tolueneimino]phenoxyruthenium [Embodiment 4] | 13.1 ± 0.95 µM | 3.01 ± 1.17 µM
